Data as given in patent publication US8153797B2, “Chromen-2-one derivatives and their use as monoamine neurotransmitter re-uptake inhibitors” (Neurosearch A/S, priority 2006, dated 2012).
Counter-ions that a name gives are not always drawn. Like-named read-outs stand apart in the source and are kept apart here.

Key:
[1] = target: T1, reuptake of serotonine (5-HT) in synaptosomes (Rattus norvegicus, UniProt P31652); experiment: Inhibition of serotonin reuptake in synaptosomes; format: biochemical
T1 construct: in synaptosomes as described in WO 97/16451; from tissue; method in WO 97/16451
T1 sequence (P31652 whole entry): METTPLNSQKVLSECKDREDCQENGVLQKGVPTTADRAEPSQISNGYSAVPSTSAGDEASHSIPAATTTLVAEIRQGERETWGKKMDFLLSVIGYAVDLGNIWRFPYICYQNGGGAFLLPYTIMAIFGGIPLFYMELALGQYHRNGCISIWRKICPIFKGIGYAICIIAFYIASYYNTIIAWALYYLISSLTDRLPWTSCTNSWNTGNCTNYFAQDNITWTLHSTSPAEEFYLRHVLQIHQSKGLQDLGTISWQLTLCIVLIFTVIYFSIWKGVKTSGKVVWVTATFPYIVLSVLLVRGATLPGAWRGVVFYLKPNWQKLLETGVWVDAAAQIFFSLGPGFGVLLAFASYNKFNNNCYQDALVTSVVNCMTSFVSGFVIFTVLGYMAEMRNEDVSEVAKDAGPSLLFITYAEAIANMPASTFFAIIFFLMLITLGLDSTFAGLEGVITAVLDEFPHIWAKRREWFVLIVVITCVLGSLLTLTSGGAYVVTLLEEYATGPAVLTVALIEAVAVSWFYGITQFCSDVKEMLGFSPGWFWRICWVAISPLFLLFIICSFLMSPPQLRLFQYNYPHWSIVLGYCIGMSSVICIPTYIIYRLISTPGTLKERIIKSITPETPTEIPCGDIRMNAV
Method: A number of compounds were tested for their ability to inhibit the reuptake of the monoamine neurotransmitters dopamine (DA) noradrenaline (NA) and serotonine (5-HT) in synaptosomes as described in WO 97/16451.
The test values are given as IC50 (the concentration (μM) of the test substance which inhibits the specific binding of ^3H-DA, ^3H-NA, or ^3H-5-HT by 50%).

[2] = target: T2, reuptake of dopamine (DA) in synaptosomes (Rattus norvegicus, UniProt P23977); experiment: Inhibition of dopamine reuptake in synaptosomes; format: biochemical
T2 construct: in synaptosomes as described in WO 97/16451; from tissue; method in WO 97/16451
T2 sequence (P23977 whole entry): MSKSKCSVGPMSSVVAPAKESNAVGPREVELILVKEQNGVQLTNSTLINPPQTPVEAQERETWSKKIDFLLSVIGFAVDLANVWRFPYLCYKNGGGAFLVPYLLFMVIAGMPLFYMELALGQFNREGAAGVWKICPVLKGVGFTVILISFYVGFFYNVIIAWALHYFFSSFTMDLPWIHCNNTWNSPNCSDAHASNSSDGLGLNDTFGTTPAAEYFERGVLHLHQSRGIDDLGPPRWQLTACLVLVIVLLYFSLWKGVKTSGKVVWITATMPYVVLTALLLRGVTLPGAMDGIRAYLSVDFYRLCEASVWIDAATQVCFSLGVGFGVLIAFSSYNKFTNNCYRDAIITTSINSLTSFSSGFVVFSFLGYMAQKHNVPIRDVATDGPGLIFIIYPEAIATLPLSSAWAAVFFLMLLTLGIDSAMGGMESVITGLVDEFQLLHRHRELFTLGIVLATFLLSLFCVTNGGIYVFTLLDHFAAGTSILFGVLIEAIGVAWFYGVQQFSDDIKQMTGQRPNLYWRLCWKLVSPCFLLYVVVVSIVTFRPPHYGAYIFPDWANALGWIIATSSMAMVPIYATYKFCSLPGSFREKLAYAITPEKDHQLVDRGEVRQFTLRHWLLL

[3] = target: T3, reuptake of noradrenaline (NA) in synaptosomes (Rattus norvegicus, UniProt Q63380); experiment: Inhibition of noradrenaline reuptake in synaptosomes; format: biochemical
T3 construct: in synaptosomes as described in WO 97/16451; from tissue; method in WO 97/16451
T3 sequence (Q63380 1-617): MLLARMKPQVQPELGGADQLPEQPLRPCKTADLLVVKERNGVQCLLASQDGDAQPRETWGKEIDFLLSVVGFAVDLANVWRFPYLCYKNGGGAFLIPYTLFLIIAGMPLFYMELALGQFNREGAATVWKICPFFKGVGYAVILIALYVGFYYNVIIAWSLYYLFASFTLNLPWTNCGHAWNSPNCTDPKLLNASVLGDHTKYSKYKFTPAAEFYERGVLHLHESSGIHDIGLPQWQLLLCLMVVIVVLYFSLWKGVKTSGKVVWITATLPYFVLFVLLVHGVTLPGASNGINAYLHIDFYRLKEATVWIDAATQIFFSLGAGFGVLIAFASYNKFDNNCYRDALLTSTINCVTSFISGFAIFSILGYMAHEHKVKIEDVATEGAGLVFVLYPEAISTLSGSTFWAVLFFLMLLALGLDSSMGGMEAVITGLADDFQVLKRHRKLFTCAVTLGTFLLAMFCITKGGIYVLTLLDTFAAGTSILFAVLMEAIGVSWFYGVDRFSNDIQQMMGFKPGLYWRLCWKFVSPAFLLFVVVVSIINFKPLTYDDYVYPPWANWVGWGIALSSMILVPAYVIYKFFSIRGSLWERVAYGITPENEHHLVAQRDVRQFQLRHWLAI

[4] = 3H-5-HT, synaptosomes, read-out: 5-HT-uptake IC50

Row | Structure (SMILES) | IC50 [1, 4] [nM] | IC50 ([2]; 3H-DA, synaptosomes, read-out: DA-uptake IC50) [nM] | IC50 ([3]; 3H-NA, synaptosomes, read-out: NA-uptake IC50) [nM] | melting point [°C] | IC50 [2] [nM] | IC50 [3] [nM] | IC50 [1] [nM]
1 | CN1[C@@H]2CC[C@H]1C[C@H](Oc1ccc3cc(Br)c(=O)oc3c1)C2 [First compound of Method 2B, exo-3-Bromo-7-(8-methyl-8-aza-bicyclo[3.2.1]oct-3-yloxy)-chromen-2-one hydrochloric acid salt] | 1.2 | 44 | 17 |  |  |  | 
2 | CN1[C@@H]2C=C[C@H]1C[C@H](Oc1ccc3ccc(=O)oc3c1)C2 (as salt: hydrochloric acid salt) [First compound of Method 4B, exo-7-(8-Methyl-8-aza-bicyclo[3.2.1]oct-6-en-3-yloxy)-chromen-2-one hydrochloric acid salt] |  |  |  | > 275 |  |  | 
3 | O=c1oc2cc(O[C@@H]3C[C@H]4CC[C@@H](C3)N4)ccc2cc1Cl [Second last compound of Method 2B, exo-7-(8-Aza-bicyclo[3.2.1]oct-3-yloxy)-3-chloro-chromen-2-one hydrochloric acid salt] | 0.59 |  |  |  | 54 | 14 | 
4 | CN1[C@@H]2C=C[C@H]1C[C@H](Oc1ccc3ccc(=O)oc3c1)C2 [First compound of Method 4B, exo-7-(8-Methyl-8-aza-bicyclo[3.2.1]oct-6-en-3-yloxy)-chromen-2-one hydrochloric acid salt] |  |  |  |  | 700 | 720 | 36
